{"source": "patent US20190134003A1", "about": "“COMBINATION THERAPIES USING INDAZOLYLBENZAMIDE DERIVATIVES FOR THE TREATMENT OF CANCER” (ESANEX, INC., priority 2016, published 2019)", "key": {"[1]": {"experiment": "Dose escalation, MTD/DLT and adverse events of SNX-5422 with carboplatin and paclitaxel in patients", "assay_type": "in vivo, human", "settings": "SNX-5422 qod in combination with carboplatin (AUC 5) and paclitaxel (175 mg/m^2)", "excerpt": "The performed dosing schedule is disclosed in FIG. 1. SNX-5422 dose was escalated as follows."}, "[2]": {"settings": "every other day (qod), previously-established; cited from earlier work"}}}
{"smiles": "CC1(C)CC(=O)c2c(C(F)(F)F)nn(-c3ccc(C(N)=O)c(N[C@H]4CC[C@H](OC(=O)CN)CC4)c3)c2C1", "note": "[SNX-5422, trans-4-{(2-(aminocarbonyl)-5-[6,6-dimethyl-4-oxo-3-(trifluoromethyl)-4,5,6,7-tetrahydro-1H-indazol-1-yl]phenyl}amino)cyclohexyl glycinate]", "values": [{"measurement": "Maximum Tolerated Dose", "setting": "[1]", "value": 100, "unit": "mg/m^2"}, {"measurement": "single agent MTD", "setting": "[2]", "value": 100, "unit": "mg/m^2"}]}
